Results from US8552024B2, “Azacyclic compounds” (Hoffman-La Roche Inc., priority 2011, dated 2013).

Target: T1, human HSL (Homo sapiens, UniProt Q05469)
T1 construct: overlapping PCR to generate a full length human HSL ORF with a 3′-His6 tag; made in house; host or cells: High 5 insect cells (baculovirus, pFast-BAC)
T1 sequence (Q05469 1-1076): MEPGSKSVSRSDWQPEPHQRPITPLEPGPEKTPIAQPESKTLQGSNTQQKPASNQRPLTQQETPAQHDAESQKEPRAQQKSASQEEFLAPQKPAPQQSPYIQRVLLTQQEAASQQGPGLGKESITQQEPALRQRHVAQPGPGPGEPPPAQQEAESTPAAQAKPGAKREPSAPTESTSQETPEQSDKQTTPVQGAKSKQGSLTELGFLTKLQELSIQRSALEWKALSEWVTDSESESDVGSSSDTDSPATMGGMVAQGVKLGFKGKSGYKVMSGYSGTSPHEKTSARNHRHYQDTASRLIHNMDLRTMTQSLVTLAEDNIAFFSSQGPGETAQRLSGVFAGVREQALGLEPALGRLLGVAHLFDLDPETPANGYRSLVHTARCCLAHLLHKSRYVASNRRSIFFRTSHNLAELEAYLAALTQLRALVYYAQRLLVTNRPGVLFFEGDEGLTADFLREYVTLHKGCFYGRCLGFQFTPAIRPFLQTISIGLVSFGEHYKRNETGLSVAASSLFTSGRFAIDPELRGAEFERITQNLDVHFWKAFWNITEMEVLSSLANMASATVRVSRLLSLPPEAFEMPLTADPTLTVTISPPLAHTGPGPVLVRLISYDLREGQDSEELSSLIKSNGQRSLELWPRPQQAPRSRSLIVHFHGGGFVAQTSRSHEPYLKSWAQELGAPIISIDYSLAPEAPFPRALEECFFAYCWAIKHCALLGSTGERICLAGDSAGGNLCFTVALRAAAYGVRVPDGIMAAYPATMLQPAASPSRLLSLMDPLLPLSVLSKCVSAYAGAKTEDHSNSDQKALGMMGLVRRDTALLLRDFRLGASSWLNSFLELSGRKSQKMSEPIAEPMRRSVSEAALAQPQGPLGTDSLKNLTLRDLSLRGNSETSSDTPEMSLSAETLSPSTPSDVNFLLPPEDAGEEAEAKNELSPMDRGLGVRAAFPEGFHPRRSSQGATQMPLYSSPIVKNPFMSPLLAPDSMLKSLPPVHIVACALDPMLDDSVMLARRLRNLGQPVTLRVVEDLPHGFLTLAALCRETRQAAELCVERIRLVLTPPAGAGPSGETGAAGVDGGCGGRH
Assay: Human Hormone-Sensitive Lipase (HSL) enzyme inhibition assay (colorimetric, DMPT substrate)
Type: biochemical
Conditions: human full length HSL-His6; substrate 2,3-dimercapto-1-propanol tributyrate; 37° C., 20 minutes; absorbance at 405 nm; read-out: HSL hum IC50
Protocol: Production of Human full length Hormone Sensitive Lipase-His^6:
1) Cloning: cDNA was prepared from commercial human brain polyA+ RNA and used as a template in overlapping PCR to generate a full length human HSL ORF with a 3′-His6 tag. This full length insert was cloned into the pFast-BAC vector and the DNA-sequence of several single clones was verified. DNA from a correct full length clone with the 3′His6 tag was used to transform the E. coli strain DH10BAC. Resulting bacmid DNA was used to generate a titered baculovirus stock for protein generation. The sequence of the encoded HSL conforms to Swissprot entry Q05469, with the additional C-terminal His6-tag. 2) Protein purification: Culture: 5.5 L, High 5 cells expressing human full length HSL-His^6, 48 hr., containing 25 μM E-64. Cell count: 1.78×10^10 cells/ml, 90% viable. Cells were thawed. On ice, cells were suspended in Base Buffer containing 10% glycerol, 25 mM Tris-Cl, 300 mM NaCl, 10 mM imidazole, 10 mM 2-mercaptoethanol, 2 μg pepstatin/ml, 2 μg leupeptin/ml, 2 μg antipain/ml, pH 8.0 at 4° C. in a final volume of 475 ml with 3.75×10^7 cells/ml. […] was done at 3×30 sec., Lubrol PX was added to 0.2% final concentration followed by stirring for 15 min. at 4° C. and centrifugation at 25 k×g, 60 min., 4° C. Soluble proteins were mixed with 60 ml of pre-washed and equilibrated Ni-NTA Agarose (Qiagen 30210) followed by tumbling end-over-end, 45 min., 4° C., centrifugation 1000 rpm 5 min and letting resin settle 5 min. Supernatant was removed, the resin washed in the centrifuge vessel using 5 volumes of Base Buffer containing 0.2% Lubrol PX. Centrifugation was done again, then the supernatant discarded. The resin was poured onto a 0.8 μm membrane in a disposable filter unit (Nalge 450-0080), and washed with 5 volumes of Base Buffer containing 0.2% Lubrol PX. It was then washed with 30 volumes of Base Buffer containing 60 mM imidazole pH 7.5 at 4° C. The protein was eluated with 5 volumes of 25 mM Tris-Cl, 300 mM NaCl, 200 mM imidazole, 10 mM 2-mercaptoethanol, pH 7.5 at 4° C. by tumbling resin with buffer end-over-end, 30 min., 4° C. The resin was captured on a 0.2 μm membrane disposable filter unit (Millipore SCGP U02 RE) and the eluate collected in the reservoir. The eluate was concentrated using a 30 k MWCO centrifugal filter device (Sartorius Vivascience Vivacell 100, VC1022), to 20 ml. It was then dialyzed overnight at 4° C., two times against 2 L of 10% glycerol, 25 mM Tris-Cl, 300 mM NaCl, 0.2 mM EDTA, 0.2 mM DTT, pH 7.5 at 4° C. The protein was filtered using a 0.22 μm disposable filter unit (Millipore SCGP00525). The protein concentration was calculated from absorbance at 280 nm, using 280=0.67 cm-1 mg-1. Yield was 235 mg, total. The protein was stored at −80° C.
Human Hormone-Sensitive Lipase (HSL) Enzyme Inhibition Assay:
HSL enzyme activity was measured by a colorimetric assay using 2,3-dimercapto-1-propanol tributyrate (Aldrich, St. Louis, Mo.) as a substrate. Typically, 1.5 mM 2,3-dimercapto-1-propanol tributyrate (DMPT) in 100 mM MOPS, pH 7.2, 0.2 mg/ml fatty acid-free BSA was prepared by sonication at 4° C. to homogenous suspension. Test compounds (2 mM stock in DMSO) were diluted 3 fold in series in DMSO. Compound solutions were diluted 24 fold in 1.5 mM DMPT containing solution and 18 ul per well was added to 384-well microplates (Corning Costar). Twelve microliters per well of human HSL (15 ug/ml) was added and the reaction mixture was incubated at 37° C. for 20 minutes. Six microliters of 12 mM dithio-bis-(2-nitrobenzoic acid) (DTNB) in DMSO plus 1.2% SDS and 0.6% Triton X-100 were added and the mixture was incubated at room temperature for 15 minutes. Product production was monitored by reading absorbance at 405 nm on an Envision Reader (PerkinElmer Life and Analytical Sciences, Shelton, Conn.).

Row | Compound | IC50
1 | O=C1N(c2ccc(OC(F)(F)F)cc2)CCC12CCN(c1ccc(C(F)(F)F)cc1F)CC2 [Example 1, 8-(2-Fluoro-4-trifluoromethyl-phenyl)-2-(4-trifluoromethoxy-phenyl)-2,8-diaza-spiro[4.5]decan-1-one] | 920 nM
2 | O=C1N(c2ccc(OC(F)(F)F)cc2)CCC12CCN(c1cc(C(F)(F)F)ccc1F)CC2 [Example 2, 8-(2-Fluoro-5-trifluoromethyl-phenyl)-2-(4-trifluoromethoxy-phenyl)-2,8-diaza-spiro[4.5]decan-1-one] | 550 nM
3 | O=C1N(c2ccc(OC(F)(F)F)cc2)CCC12CCN(c1ccccc1F)CC2 [Example 3, 8-(2-Fluoro-phenyl)-2-(4-trifluoromethoxy-phenyl)-2,8-diaza-spiro[4.5]decan-1-one] | 310 nM
4 | O=C1N(c2ccc(OC(F)(F)F)cc2)CCC12CCN(c1cccc(OC(F)(F)F)c1)CC2 [Example 4, 8-(3-Trifluoromethoxy-phenyl)-2-(4-trifluoromethoxy-phenyl)-2,8-diaza-spiro[4.5]decan-1-one] | 630 nM
5 | O=C1N(c2ccc(OC(F)(F)F)cc2)CCC12CCN(c1ccccc1Cl)CC2 [Example 5, 8-(2-Chloro-phenyl)-2-(4-trifluoromethoxy-phenyl)-2,8-diaza-spiro[4.5]decan-1-one] | 710 nM
6 | O=C1N(c2ccc(OC(F)(F)F)cc2)CCC12CCN(c1c(F)cccc1F)CC2 [Example 6, 8-(2,6-Difluoro-phenyl)-2-(4-trifluoromethoxy-phenyl)-2,8-diaza-spiro[4.5]decan-1-one] | 960 nM
7 | COc1ccccc1N1CCC2(CC1)CCN(c1ccc(OC(F)(F)F)cc1)C2=O [Example 7, 8-(2-Methoxy-phenyl)-2-(4-trifluoromethoxy-phenyl)-2,8-diaza-spiro[4.5]decan-1-one] | 110 nM
8 | COc1ccc(C)cc1N1CCC2(CC1)CCN(c1ccc(OC(F)(F)F)cc1)C2=O [Example 8, 8-(2-Methoxy-5-methyl-phenyl)-2-(4-trifluoromethoxy-phenyl)-2,8-diaza-spiro[4.5]decan-1-one] | 100 nM
9 | COc1ncccc1N1CCC2(CC1)CCN(c1ccc(OC(F)(F)F)cc1)C2=O [Example 9, 8-(2-Methoxy-pyridin-3-yl)-2-(4-trifluoromethoxy-phenyl)-2,8-diaza-spiro[4.5]decan-1-one] | 110 nM
10 | Cc1cnc(F)c(N2CCC3(CC2)CCN(c2ccc(OC(F)(F)F)cc2)C3=O)c1 [Example 10, 8-(2-fluoro-5-methylpyridin-3-yl)-2-(4-(trifluoromethoxy)phenyl)-2,8-diazaspiro[4.5]decan-1-one] | 240 nM
11 | O=C1N(c2ccc(OC(F)(F)F)cc2)CCC12CCN(c1cccc(OCc3ccccc3)n1)CC2 [Example 16, 8-(6-Benzyloxy-pyridin-2-yl)-2-(4-trifluoromethoxy-phenyl)-2,8-diaza-spiro[4.5]decan-1-one] | 900 nM
12 | O=C1N(c2ccc(OC(F)(F)F)cc2)CCC12CCN(c1cccc(O)n1)CC2 [Example 17, 8-(6-Hydroxy-pyridin-2-yl)-2-(4-trifluoromethoxy-phenyl)-2,8-diaza-spiro[4.5]decan-1-one] | 250 nM

Now those with a lower IC50, led by results:

Row | IC50 | Compound
13 | 20 nM | Cn1cccc(N2CCC3(CC2)CCN(c2ccc(OC(F)(F)F)cc2)C3=O)c1=O [Example 11, 8-(1-methyl-2-oxo-1,2-dihydropyridin-3-yl)-2-(4-(trifluoromethoxy)phenyl)-2,8-diazaspiro[4.5]decan-1-one]
14 | 30 nM | CCCn1cccc(N2CCC3(CC2)CCN(c2ccc(OC(F)(F)F)cc2)C3=O)c1=O [Example 12, 8-(2-Oxo-1-propyl-1,2-dihydro-pyridin-3-yl)-2-(4-trifluoromethoxy-phenyl)-2,8-diaza-spiro[4.5]decan-1-one]
15 | 50 nM | O=C1N(c2ccc(OC(F)(F)F)cc2)CCC12CCN(c1ccccc1O)CC2 [Example 13, 8-(2-Hydroxy-phenyl)-2-(4-trifluoromethoxy-phenyl)-2,8-diaza-spiro[4.5]decan-1-one]
16 | 60 nM | Cc1ccc(O)c(N2CCC3(CC2)CCN(c2ccc(OC(F)(F)F)cc2)C3=O)c1 [Example 14, 8-(2-Hydroxy-5-methyl-phenyl)-2-(4-trifluoromethoxy-phenyl)-2,8-diaza-spiro[4.5]decan-1-one]
17 | 40 nM | O=C1N(c2ccc(OC(F)(F)F)cc2)CCC12CCN(c1cccnc1O)CC2 [Example 15, 8-(2-Hydroxy-pyridin-3-yl)-2-(4-trifluoromethoxy-phenyl)-2,8-diaza-spiro[4.5]decan-1-one]
18 | 20 nM | C[C@H](Oc1ccc(N2CCC3(CCN(c4cccn(C)c4=O)CC3)C2=O)cc1)C(F)(F)F [Example 18, 8-(1-Methyl-2-oxo-1,2-dihydro-pyridin-3-yl)-2-[4-((S)-2,2,2-trifluoro-1-methyl-ethoxy)-phenyl]-2,8-diaza-spiro[4.5]decan-1-one]
